“And” between values parts separate entries of the source, which are not always exact repeats. Equal values may be shown once. Toxic doses and inconclusive results are not listed.
Tested on: P388 leukemia ip, CD2F1 mice, survival T/C
Experiment: NCI In Vivo Anticancer Drug Screen. Data for tumor model P388 Leukemia (intraperitoneal) in CD2F1 (CDF1) mice
Conditions: endpoint: median survival time, higher = longer survival
How it was run: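 Mice carrying the transplanted tumor received test compound or vehicle. Survival was recorded in each group, and the value is the treated-group measurement divided by that of the vehicle-treated control group.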

[1] = dose: 50.0 mg/kg/injection, schedule: Q01DX005 (ip), vehicle: Klucel + Tween-80
[2] = dose: 100.0 mg/kg/injection, schedule: Q01DX005 (ip), vehicle: Klucel + Tween-80
[3] = dose: 200.0 mg/kg/injection, schedule: Q01DX005 (ip), vehicle: Klucel + Tween-80
[4] = dose: 12.5 mg/kg/injection, schedule: Q01DX005 (ip), vehicle: Klucel (hydroxypropylcellulose) (HPC)
[5] = dose: 25.0 mg/kg/injection, schedule: Q01DX005 (ip), vehicle: Klucel (hydroxypropylcellulose) (HPC)
[6] = dose: 200.0 mg/kg/injection, schedule: Q01DX009 (ip), vehicle: saline with Tween-80
[7] = dose: 6.25 mg/kg/injection, schedule: Q01DX009 (ip), vehicle: saline
[8] = dose: 12.5 mg/kg/injection, schedule: Q01DX009 (ip), vehicle: saline
[9] = dose: 12.5 mg/kg/injection, schedule: Q01DX009 (ip), vehicle: saline with Tween-80
[10] = dose: 25.0 mg/kg/injection, schedule: Q01DX009 (ip), vehicle: saline with Tween-80
[11] = dose: 50.0 mg/kg/injection, schedule: Q01DX009 (ip), vehicle: saline with Tween-80
[12] = dose: 100.0 mg/kg/injection, schedule: Q01DX009 (ip), vehicle: saline with Tween-80
[13] = dose: 100.0 mg/kg/injection, schedule: Q04DX003 (ip), vehicle: Klucel (hydroxypropylcellulose) (HPC)
[14] = dose: 200.0 mg/kg/injection, schedule: Q04DX003 (ip), vehicle: Klucel (hydroxypropylcellulose) (HPC)

SMILES: CCCCCCCC(=O)Nc1nnc(SCCCCCCCCCCSc2nnc(NC(=O)CCCCCCC)s2)s1
- T/C [1]: 90 % of control
- T/C [2]: 87 % of control
- T/C [3]: 90 % of control

SMILES: C=CC1OCCC(C)O1 (stereo not drawn)
- T/C (dose: 60.0 mg/kg/injection, schedule: Q01DX005 (ip), vehicle: saline): 99 % of control
- T/C (dose: 120.0 mg/kg/injection, schedule: Q01DX005 (ip), vehicle: saline): 100 % of control
- T/C (dose: 240.0 mg/kg/injection, schedule: Q01DX005 (ip), vehicle: saline): 97 % of control

SMILES: O=C1c2ccccc2C(=O)C1C(=Nc1ccccc1Cl)c1ccccc1
- T/C [4]: 90 % of control
- T/C [5]: 88 % of control
- T/C (dose: 50.0 mg/kg/injection, schedule: Q01DX005 (ip), vehicle: Klucel (hydroxypropylcellulose) (HPC)): 86 % of control
- T/C (dose: 100.0 mg/kg/injection, schedule: Q01DX005 (ip), vehicle: Klucel (hydroxypropylcellulose) (HPC)): 94 % of control

SMILES: COC1=CC(C)(C)C(=O)S1
- T/C (dose: 25.0 mg/kg/injection, schedule: Q04DX002 (ip), vehicle: saline with Tween-80): 100 % of control
- T/C (dose: 50.0 mg/kg/injection, schedule: Q04DX002 (ip), vehicle: saline with Tween-80): 96 % of control
- T/C (dose: 100.0 mg/kg/injection, schedule: Q04DX002 (ip), vehicle: saline with Tween-80): 100 % of control

SMILES: O=[N+]([O-])c1ccc(C(c2ccccc2)c2ccccc2)cc1
- T/C [6]: 90 % of control

SMILES: CCN(CCCl)c1ccccc1
- T/C (dose: 3.12 mg/kg/injection, schedule: Q01DX009 (ip), vehicle: saline): 105 % of control
- T/C [7]: 106 % of control
- T/C [8]: 116 % of control
- T/C (dose: 25.0 mg/kg/injection, schedule: Q01DX009 (ip), vehicle: saline): 106 % of control and 115 % of control

SMILES: Cc1ccc(C)c(C(O)(c2cc(C)ccc2C)C2(O)CCCCC2)c1
- T/C (dose: 50.0 mg/kg/injection, schedule: Q01DX005 (ip), vehicle: saline with Tween-80): 106 % of control
- T/C (dose: 100.0 mg/kg/injection, schedule: Q01DX005 (ip), vehicle: saline with Tween-80): 103 % of control
- T/C (dose: 200.0 mg/kg/injection, schedule: Q01DX005 (ip), vehicle: saline with Tween-80): 97 % of control

SMILES: CCOC(=O)CNC(=O)NNC(=O)OCC
- T/C [7]: 98 % of control
- T/C [8]: 91 % of control
- T/C (dose: 50.0 mg/kg/injection, schedule: Q01DX009 (ip), vehicle: saline): 100 % of control
- T/C (dose: 100.0 mg/kg/injection, schedule: Q01DX009 (ip), vehicle: saline): 100 % of control
- T/C (dose: 200.0 mg/kg/injection, schedule: Q01DX009 (ip), vehicle: saline): 100 % of control

SMILES: C/C(CCCC(C)(C)C(=O)O)=N/Nc1ccc([N+](=O)[O-])cc1[N+](=O)[O-]
- T/C [9]: 104 % of control
- T/C [10]: 100 % of control
- T/C [11]: 92 % of control and 95 % of control

SMILES: O=C(Nc1cccc2ccccc12)Oc1cccc2cccnc12
- T/C [10]: 89 % of control
- T/C [11]: 86 % of control
- T/C [12]: 89 % of control

SMILES: C[n+]1c(/C=C/c2ccccc2Cl)ccc2ccccc21
- T/C [9]: 94 % of control
- T/C [10]: 100 % of control
- T/C [11]: 94 % of control

SMILES: c1ccc(-c2csc(=[N+]3CCCCC3)s2)cc1
- T/C (dose: 6.25 mg/kg/injection, schedule: Q01DX009 (ip), vehicle: water): 111 % of control and 117 % of control and 124 % of control

SMILES: Cc1cc(-c2ccc(N3C(=O)CC4(CCCCC4)C3=O)c(C)c2)ccc1N1C(=O)CC2(CCCCC2)C1=O
- T/C [13]: 90 % of control
- T/C [14]: 90 % of control

SMILES: Cc1ccc(NC(=O)CCCCC(C)NCC(O)c2ccc(O)c(O)c2)cc1 (stereo not drawn)
- T/C (dose: 100.0 mg/kg/injection, schedule: Q01DX001 (ip), vehicle: saline): 97 % of control
- T/C (dose: 200.0 mg/kg/injection, schedule: Q01DX001 (ip), vehicle: saline): 100 % of control

SMILES: Cc1ccc(C(=O)Nc2ccncc2)cc1
- T/C (dose: 6.25 mg/kg/injection, schedule: Q01DX009 (ip), vehicle: Klucel (hydroxypropylcellulose) (HPC)): 109 % of control
- T/C (dose: 12.5 mg/kg/injection, schedule: Q01DX009 (ip), vehicle: Klucel (hydroxypropylcellulose) (HPC)): 99 % of control

SMILES: CCCCCCCCCCNCCSSCc1ccc(OC)cc1
- T/C (dose: 6.25 mg/kg/injection, schedule: Q01DX005 (ip), vehicle: Klucel (hydroxypropylcellulose) (HPC)): 103 % of control
- T/C [4]: 103 % of control
- T/C [5]: 100 % of control

SMILES: CC(=O)Oc1n[nH]c(=O)n1-c1ccccc1
- T/C [1]: 107 % of control
- T/C [2]: 107 % of control
- T/C [3]: 98 % of control

SMILES: Nc1nc(N)nc(NC(=O)COc2cc(Cl)c(Cl)cc2Cl)n1
- T/C [12]: 95 % of control
- T/C [6]: 90 % of control
- T/C (dose: 400.0 mg/kg/injection, schedule: Q01DX009 (ip), vehicle: saline with Tween-80): 100 % of control

SMILES: NC(=O)c1ccnn1C1OC(CO)C(O)C1O (stereo not drawn)
- T/C (dose: 32.0 mg/kg/injection, schedule: Q01DX002 (ip), vehicle: saline): 107 % of control and 116 % of control
- T/C (dose: 64.0 mg/kg/injection, schedule: Q01DX002 (ip), vehicle: saline): 104 % of control and 112 % of control
- T/C (dose: 128.0 mg/kg/injection, schedule: Q01DX002 (ip), vehicle: saline): 107 % of control

SMILES: NC1[N-]C(C2CCCC[N-]2)CC2CCCCC21.NC1[N-]C(C2CCCC[N-]2)CC2CCCCC21.O=[N+]([O-])O.[Cu+] (stereo not drawn)
- T/C (dose: 6.25 mg/kg/injection, schedule: Q04DX009 (ip), vehicle: suspension in saline): 98 % of control
- T/C (dose: 12.5 mg/kg/injection, schedule: Q04DX009 (ip), vehicle: suspension in saline): 103 % of control
- T/C (dose: 25.0 mg/kg/injection, schedule: Q04DX009 (ip), vehicle: suspension in saline): 113 % of control

SMILES: CNC1CCc2cc(OC)ccc21 (stereo not drawn)
- T/C (dose: 50.0 mg/kg/injection, schedule: Q01DX001 (ip), vehicle: Klucel (hydroxypropylcellulose) (HPC)): 107 % of control
- T/C (dose: 100.0 mg/kg/injection, schedule: Q01DX001 (ip), vehicle: Klucel (hydroxypropylcellulose) (HPC)): 102 % of control

SMILES: c1csc(NC(Nc2nccs2)C23CC4CC(CC(C4)C2)C3)n1
- T/C [11]: 96 % of control
- T/C [12]: 101 % of control
- T/C [6]: 100 % of control

SMILES: Nc1ccccc1Cl
- T/C (dose: 31.25 mg/kg/injection, schedule: Q01DX009 (ip), vehicle: saline with Tween-80): 95 % of control
- T/C (dose: 62.5 mg/kg/injection, schedule: Q01DX009 (ip), vehicle: saline with Tween-80): 109 % of control
- T/C (dose: 125.0 mg/kg/injection, schedule: Q01DX009 (ip), vehicle: saline with Tween-80): 100 % of control

SMILES: CN1CCN(CCCN2c3ccccc3Sc3cc(N4c5ccccc5Sc5ccc(C(F)(F)F)cc54)c(C(F)(F)F)cc32)CC1
- T/C [13]: 95 % of control
- T/C [14]: 95 % of control
- T/C (dose: 400.0 mg/kg/injection, schedule: Q04DX003 (ip), vehicle: Klucel (hydroxypropylcellulose) (HPC)): 107 % of control

SMILES: CC1(C)CC(=O)C=C(OS(=O)(=O)C(F)(F)F)C1
- T/C (dose: 12.5 mg/kg/injection, schedule: Q01DX009 (ip), vehicle: distilled water + Tween-80): 111 % of control
- T/C (dose: 25.0 mg/kg/injection, schedule: Q01DX009 (ip), vehicle: distilled water + Tween-80): 112 % of control
- T/C (dose: 50.0 mg/kg/injection, schedule: Q01DX009 (ip), vehicle: distilled water + Tween-80): 98 % of control

SMILES: Cc1cc(F)nc(F)n1
- T/C (dose: 50.0 mg/kg/injection, schedule: Q01DX005 (ip), vehicle: saline): 98 % of control
- T/C (dose: 100.0 mg/kg/injection, schedule: Q01DX005 (ip), vehicle: saline): 98 % of control

SMILES: COc1cc(CC2c3cc(OC)c(OC)cc3CCN2C)c(Oc2cc3c(cc2OC)-c2c(O)c(OC)cc4c2C(C3)N(C)CC4)cc1OC (stereo not drawn)
- T/C (dose: 12.5 mg/kg/injection, schedule: Q04DX003 (ip), vehicle: saline with Tween-80): 101 % of control
- T/C (dose: 25.0 mg/kg/injection, schedule: Q04DX003 (ip), vehicle: saline with Tween-80): 101 % of control
- T/C (dose: 50.0 mg/kg/injection, schedule: Q04DX003 (ip), vehicle: saline with Tween-80): 100 % of control
- T/C (dose: 200.0 mg/kg/injection, schedule: Q04DX003 (ip), vehicle: saline with Tween-80): 89 % of control
- T/C (dose: 400.0 mg/kg/injection, schedule: Q04DX003 (ip), vehicle: saline with Tween-80): 97 % of control

SMILES: CC1C(c2ccccc2)=Nn2c(=O)n(-c3ccccc3)c(=O)n21 (stereo not drawn)
- T/C (dose: 25.0 mg/kg/injection, schedule: Q01DX009 (ip), vehicle: other): 90 % of control
- T/C (dose: 50.0 mg/kg/injection, schedule: Q01DX009 (ip), vehicle: other): 91 % of control
- T/C (dose: 100.0 mg/kg/injection, schedule: Q01DX009 (ip), vehicle: other): 91 % of control
- T/C (dose: 200.0 mg/kg/injection, schedule: Q01DX009 (ip), vehicle: other): 89 % of control
- T/C (dose: 400.0 mg/kg/injection, schedule: Q01DX009 (ip), vehicle: other): 86 % of control
